Laboratory results as given in patent US5856189A, “Cell culture model for drug bioavailability” (priority 1997, dated 1999).

What was measured:
[1] = test system: Caco-2 cells; assay: Apical/basolateral distribution of midazolam and metabolite across Caco-2 monolayers; details: every time point, also after basolateral MDZ
Excerpt: At the end of this period, the medium was replaced with medium not containing vitamin D (except that contributed by the 5% FBS).

[2] = target: CYP3A (Caco-2 cells) (Homo sapiens, UniProt P08684); details: serum-free; 4 μM MDZ apical, 6.5 h; FIG. 9
Experimental: Standards were also prepared in duplicate. Known amounts of MDZ and 1'-OH-MDZ (1-50 ng) were combined with 100 mM potassium phosphate buffer, pH 7.4.
Unknowns and standards were extracted with 5 mL ethyl acetate and the upper organic layer transferred to clean tubes. The solvent was evaporated to dryness under a stream of nitrogen. The remaining solvent was reconstituted in 100 μL derivatizing reagent (10% N-methyl-N-(t-butyldimethylsilyl)trifluoroacetamide in acetonitrile).
At the end of this period, the medium was replaced with medium not containing vitamin D (except that contributed by the 5% FBS). Next, 4 μM MDZ was added to the apical (luminal) or basolateral (serosal) medium of the cells.
Parent drug and metabolite concentrations measured at 1 and 2 hours after MDZ administration were used for computation. The amount of 1'-OH-MDZ formed during this interval was determined as the sum of metabolite in the apical and basolateral compartments at 2 hours minus the total amount measured at 1 hour.
Because the incubation medium contained significant amounts of FBS, the fraction of MDZ bound to culture medium proteins was measured by equilibrium dialysis. […] The unbound concentration of MDZ in the apical and basolateral compartments during cell culture was calculated as the product of the experimentally determined MDZ-free fraction and total MDZ concentration. Since MDZ concentrations in the apical and basolateral compartments were not at equilibrium during the 1-2 hour MDZ incubation interval, the intracellular reaction was assumed to be driven by a MDZ concentration that was more closely aligned with the concentration in the basolateral compartment.
At the end of this period, the medium was replaced with medium containing neither serum nor vitamin D. Next, MDZ (4 μM) was added to the apical compartment.

[3] = test system: Caco-2 cells; assay: Glucuronidation of 1'-OH-MDZ in Caco-2 cells; details: 2-24 h with 4 μM MDZ; β-glucuronidase
Experimental: The experiments of this example assess whether glucuronidation occurs in the culture system of the present invention. […] Each of a complete set of parallel 0.5 mL samples was diluted to a volume of 1 mL and spiked with 20 ng 1'-[^2 H2 ],1'-OH-MDZ (no glucuronidase treatment).

[4] = test system: CYP1A1; assay: Immunoblot of CYP1A1 protein in Caco-2 cells; format: cell-based, human; details: two weeks treatment, varying concentrations
[5] = test system: CYP2D6; details: two weeks treatment, varying concentrations
Excerpt: (§1) The homogenates were electrophoresed in polyacrylamide gels containing 0.1% SDS, and the separated proteins were electrophoretically transferred to nitrocellulose. Nonspecific binding sites were blocked using 0.3% Tween 20 and 5% nonfat dry milk (Carnation) in Tris buffered saline.
CYP2D6 was detected using a polyclonal rabbit antibody developed against unique antigenic peptides and was obtained from Dr. Alastair Cribb (Merck Research Laboratories, West Point, Pa.).
(§2) Secondary antibodies of appropriate specificities conjugated with horseradish peroxidase were obtained commercially (rabbit anti-mouse IgG and goat anti-rabbit IgG/A/M from Zymed and mouse anti-goat IgG/A/M from Pierce). Binding of secondary antibodies was detected using the enhanced chemiluminescence (ECL™) reagents and film from Amersham.

[6] = test system: CYP3A4 mRNA (Caco-2 cells)
Experimental: Harvesting for mRNA Analyses and RNA Isolation
The medium was aspirated and the culture inserts were washed three times with Hanks' BSS containing 15 mM HEPES. […] After 5 minutes, the cell lysate was transferred to a microcentrifuge tube and kept at -80° C. pending further processing. At a later time, the lysate was thawed quickly at 65° C., and total RNA was isolated according to the protocol of P. Chomczynski and N. Sacchi. Briefly, extraction was performed using the denaturing solution, 2M sodium acetate (pH 4), phenol, and chloroform (1:0.1:1:0.2). Next, precipitation was effected with 2 volumes of ethanol. Resolubilization and reprecipitation was then performed using the denaturing solution and 2 volumes of ethanol. […] The reagent volumes were adjusted proportionately as appropriate for the initial lysate volume.
(§3) cDNA was prepared from the total RNA using reverse transcriptase from avian myeloblastosis virus (Seikagaku America). […] The polymerase chain reaction was performed on 1 μL of a 1:10 dilution in water of a prepared cDNA.
Each thermal cycle consisted of 95° C. for 1 min, then 65° C. for 1 min 15 sec; after completing all cycles, a 10 min extension step at 65° C. was performed. The number of cycles performed in each PCR reaction is set forth below in the Examples.
(§4) PCR products were electrophoresed on agarose gels and stained with ethidium bromide. […] PCR products were judged to be of the size appropriate for amplification of the specific cDNA by comparison with molecular weight standards included on each gel.
An internal standard for quantitative competitive PCR of CYP3A4 cDNA was prepared by inserting a 30 base pair segment into the cDNA sequence to be amplified. PCR reaction mixtures were prepared by combining serial dilutions of a known amount of the standard cDNA and constant amounts of the unknown cDNA. The two cDNAs were amplified together and the products were separated on agarose gels. After staining with ethidium bromide, the two bands were quantitated densitometrically. An equivalence point (at which the densities of the standard and unknown bands are of equal optical density) was determined; the concentration of the unknown is equal to that of the standard at the point of equivalence.
The cells from all experiments were maintained in their respective differentiation media for two weeks post-confluence. Thereafter, the cells were used for midazolam metabolism studies and/or harvested for analysis of protein or mRNA (described below).
(§5) The numbers of PCR cycles were as follows: CYP3A4, 36; CYP3A5, 33; CYP3A7, 39; mdr-1, 34; IFABP, 32; and villin, 27.
(§6) At that time, the medium was replaced with medium without vitamin D (except that contributed by the 5% FBS. Total RNA was then prepared as described above and subjected to RT-PCR using synthetic oligonucleotide primer pairs designed to selectively amplify fragments of the CYP3A4 and villin cDNAs (see Table 3). The numbers of PCR cycles were as follows: CYP3A4, 36; and villin, 27. Moreover, immunoblots were performed as described above for CYP3A, NADPH cytochrome P450 reductase, P-glycoprotein, and villin. The protein loads used for the immunoblot procedures were as follows: 5 μg for CYP3A, P-glycoprotein, villin; and 40 ,μg for NADPH cytochrome P450 reductase.

[7] = test system: CYP3A (Caco-2 cells)
Experimental: At the end of that period, the medium was replaced with medium not containing vitamin D (except that contributed by the 5% FBS). […] After 6 hours, the apical and basolateral media were removed separately and analyzed for 1'-OH-MDZ concentration.
As previously indicated, the medium was aspirated and the inserts were washed three times with Hanks'BSS. […] After 6 hours, the amount of 1'-OH-MDZ was measured in the combined luminal plus basolateral medium from each culture and the rate of formation calculated.
For the experiments of this example, all cells (Caco-2 cell clones and the parent cell line) were grown on Matrigel-coated teflon culture inserts. […] At the end of this period, the medium was replaced with medium not containing vitamin D (except that contributed by the 5% FBS). Next, MDZ (4 μM) was added to the apical compartment. […] Catalytic activity and levels of protein expression were determined as previously described.
Catalytic activity and levels of protein expression were determined as previously described.

[8] = test system: P-glycoprotein; assay: Immunoblot of P-glycoprotein in Caco-2 cells; format: cell-based, human
Excerpt: as §1
(§7) P-glycoprotein was detected using a polyclonal rabbit antibody (Oncogene Science), and villin was detected using a mouse monoclonal antibody (Chemicon International).
as §2
(§8) Cell homogenates were then prepared as described above and immunoblots were performed; the Caco-2 protein loads were as follows: 10 ,μg for CYP3A, CYP3A5, P-glycoprotein, villin; 25 pg for CYP1A1, CYP2D6; 40 μg for IFABP, LFABP; 80 μg for NADPH cytochrome P450 reductase, cytochrome b5 (the villin, IFABP, and LFABP served as control proteins).

[9] = test system: CYP3A5 mRNA (Caco-2 cells); assay: RT-PCR of CYP3A5 mRNA in treated Caco-2 cells; details: 0.05-1.0 μM, two weeks
Experimental: as §3
(§9) Each thermal cycle consisted of 95° C. for 1 min, then 65° C. for 1 min 15 sec; after completing all cycles, a 10 min extension step at 65° C. was performed.
as §4, §5

[10] = test system: CYP3A (Caco-2 cells); assay: Immunoblot of CYP3A immunoreactive protein in treated Caco-2 cells; details: for CYP3A4 expression at the highest concentrations used: FIGS. 2C and 3
Experimental: The medium was aspirated and the inserts were washed three times with Hanks' BSS containing 15 mM HEPES. Cells grown on Matrigel- (or Growth Factor Reduced Matrigel-) coated inserts were removed from the membranes using Dispase according to the manufacturer's protocol. Thereafter, 5 mM EDTA in normal saline containing 1 mM PMSF and 1 mM benzamidine was added to inhibit further digestion. The cell suspension was transferred to a microcentrifuge tube and pelleted by centrifugation at 325 g. The pellets were washed three times with Hanks' BSS containing 15 mM HEPES, 1 mM PMSF, and 1 mM benzamidine. The final pellet was resuspended in a solution of 20% v/v glycerol, 100 mM Tris HCl (pH 7.4), 10 mM EDTA, 1 mM dithiothreitol, I mM PMSF, 1 mM benzamidine, and 100 μg/mL aprotinin and homogenized in a conical ground glass tissue grinder with 20 passes of a ground glass pestle. The homogenate was subjected to 10 seconds of sonication and was then kept at -80° C. until analysis.
Cells grown on uncoated inserts or inserts coated with non-Matrigel matrices were harvested by scraping into Hanks' BSS containing HEPES and protease inhibitors, washed three times, and then homogenized, sonicated, and frozen as described above.
as §1
CYP1A1 was detected using a polyclonal goat antibody (Gentest) developed against rat CYP1A1 and CYP1A2. […] CYP3A proteins were detected using a mouse monoclonal antibody ("13-7-10") obtained from Dr. Pierre Kremers (Universite de Liege, Liege, Belgium). […] This antibody detects all known forms of human CYP3A.
as §2
In some cases, immunoblot protein concentrations were determined by computer-aided densitometry. When this procedure was conducted, optical densities were performed on a Macintosh (Apple) computer using the publicly available NIH Image program (developed at the U.S. National Institutes of Health and available on the Internet at http://rsb.info.nih.gov/nih-image/). Individual exposures were scanned into binary images with a ScanJetIIc color scanner (Hewlett-Packard). An optical density-concentration standard curve was prepared using the bands from second loaded serial dilutions of purified CYP3A4 protein, and the optical densities of unknowns were converted to quantitative numbers by comparison to this curve. This allowed for correction of the nonlinearity of ECL light output and ECL Hyperfilm.

[11] = test system: CYP3A5; assay: Immunoblot of CYP3A5 protein in Caco-2 cells; format: cell-based, human; details: two weeks treatment, varying concentrations
Experimental: CYP3A5 was detected using an immunoadsorbed polyclonal rabbit antibody obtained from Dr. Steven A. Wrighton (Eli Lilly). The antibody may be generated by injecting rabbits subcutaneously with 100 μg of P450IIIA5 in 0.75 mL of phosphate-buffered saline in an emulsion made with 1.25 mL of Freund's complete adjuvant. Four weeks later, 50 μg of P450IIIA5 (in the same preparation) is injected. Finally, eight weeks from the initial injection, 50 μg of […] in 300 μL of phosphate-buffered saline is injected intravenously into the rabbits' ear vein. Serum was obtained 10 weeks following the initial immunization and weekly thereafter. The IgG fraction was then isolated and antibodies specific to CYP3A5 were isolated by adsorption of contaminating antibodies to sepharose-bound CYP3A4 [S. A. Wrighton et al., Mol. Pharmacol. 38:207-213 (1990).

[12] = test system: LFABP; assay: Immunoblot of LFABP in Caco-2 cells; format: cell-based, human; details: two weeks treatment, varying concentrations
Excerpt: as §1, §7, §2, §8

[13] = test system: CYP3A3 mRNA (Caco-2 cells); assay: RT-PCR of CYP3A3 mRNA in treated Caco-2 cells; format: cell-based, human; details: treated or untreated Caco-2 cells
Excerpt: Primer sequences for amplification of CYP3A3, CYP3A4, CYP3A5, and
These are the same primer sequences previously used by J. C. Kolars et al. [Pharmacogenetics 4:247-259 (1994)], except that a different antisense primer (SEQ ID NO:9) was used for CYP3A5, and the first sense primer for CYP3A3 was paired with the second antisense primer used by Kolars et al. (i.e., in the present invention, SEQ ID NO:1 was paired with SEQ ID NO:2).

[14] = test system: NADPH cytochrome P450 reductase; assay: Immunoblot of NADPH cytochrome P450 reductase in Caco-2 cells; details: for concentrations at which NADPH cytochrome P450 reductase level increased: two weeks treatment
Excerpt: as §1, §2, §8, §6

[15] = test system: CYP3A7 mRNA (Caco-2 cells); assay: RT-PCR of CYP3A7 mRNA in treated Caco-2 cells; details: 0.05-1.0 μM, two weeks
Experimental: as §3, §9, §4, §5

[16] = test system: villin; assay: Immunoblot of villin in Caco-2 cells; format: cell-based, human; details: for villin expression at the highest concentrations used: FIG. 3
Excerpt: as §1, §7, §2, §8

[17] = test system: IFABP; assay: Immunoblot of IFABP in Caco-2 cells; format: cell-based, human; details: two weeks treatment, varying concentrations
Excerpt: as §1, §7, §2, §8

[18] = test system: cytochrome b5; assay: Immunoblot of cytochrome b5 in Caco-2 cells; format: cell-based, human; details: two weeks treatment, varying concentrations
Excerpt: as §1, §2, §8

[19] = test system: Caco-2 cells; details: cited from earlier work
[20] = two weeks treatment from confluence, 4 μM MDZ apical, 6 h, FIG. 2A

CYP3A (Caco-2 cells) (Homo sapiens, UniProt P08684), sequence (P08684 2-503): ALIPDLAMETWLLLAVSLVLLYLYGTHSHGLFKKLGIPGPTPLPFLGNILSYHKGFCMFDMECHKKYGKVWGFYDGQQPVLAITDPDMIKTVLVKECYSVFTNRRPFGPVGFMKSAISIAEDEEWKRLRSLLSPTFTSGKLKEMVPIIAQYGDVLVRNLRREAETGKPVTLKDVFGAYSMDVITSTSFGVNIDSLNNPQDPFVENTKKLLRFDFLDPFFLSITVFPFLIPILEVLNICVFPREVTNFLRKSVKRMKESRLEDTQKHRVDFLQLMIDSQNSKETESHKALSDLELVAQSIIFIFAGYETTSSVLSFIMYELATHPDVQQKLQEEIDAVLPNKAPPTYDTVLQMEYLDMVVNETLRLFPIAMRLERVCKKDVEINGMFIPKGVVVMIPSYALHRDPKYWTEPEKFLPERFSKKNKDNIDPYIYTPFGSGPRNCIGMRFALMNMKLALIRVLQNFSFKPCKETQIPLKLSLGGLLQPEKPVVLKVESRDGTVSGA

## OCc1ncc2n1-c1ccc(Cl)cc1C(c1ccccc1F)=NC2 [1'-OH-MDZ, 1'-hydroxymidazolam]
[1]
  1'-OH-MDZ concentration, apical vs basolateral: greater in the apical medium than in the basolateral medium
[2]
  rate of 1'-OH-MDZ formation under serum-free incubation: decreased compared to that measured in the presence of serum
  rate of 1'-OH-MDZ formation, luminal vs basolateral medium: greater in the luminal medium than in the basolateral medium
[3]
  glucuronidation of 1'-OH-MDZ: had not occurred

## C=C1/C(=C\C=C2/CCC[C@]3(C)[C@@H]([C@H](C)CCCC(C)(C)O)CC[C@@H]23)C[C@@H](O)C[C@@H]1O [1α,25-(OH)2 -D3, 1α,25-dihydroxyvitamin D3]
[4]
  level of CYP1A1 protein: did not appear to change
[5]
  level of CYP2D6 protein: did not appear to change
[6]; 0.25 μM, FIG. 5A
  exposure time at which CYP3A4 mRNA appeared to plateau: 120 h
  exposure time until increase in CYP3A4 mRNA was evident: 3 to 4 h
[6]; 0.05-1.00 μM, two weeks from confluence
  CYP3A4 mRNA expression, dose-response: increased CYP3A4 mRNA expression at all concentrations used
[6]; added to differentiation medium (0.63 μM), two weeks post-confluence, Matrigel-coated Millicell CM inserts
  expression of CYP3A4 mRNA: dramatic increase in the expression of CYP3A4 mRNA
[7]; 0.25 μM two weeks, clones 4-8 and parent, untreated below limits of quantitation
  CYP3A catalytic activity, clones and parent line: demonstrably greater catalytic activity than the untreated cells
[7]; 0.25 μM, 4 μM MDZ apical, 6 h, FIG. 5B
  exposure time until midazolam metabolism first detectable: 12 h
[7]; 5% FBS media with 0.25 μM 1α,25-(OH)2 -D3
  difference in CYP3A catalytic activity among culture media: less than 4 fold
[7]; M-, D+, 0.25 μM
  CYP3A protein and catalytic activity without Matrigel: increased CYP3A protein and catalytic activity in the absence of Matrigel
[7]; apical concentrations, FIG. 2A
  extent of midazolam metabolism: dramatic increase in the extent of midazolam metabolism
[7]; clones and parent with and without treatment, p=0.0003
  correlation (R) of midazolam 1'-hydroxylation activity with CYP3A immunoreactive protein: 0.987
[7]; [20]
  concentration at which increase in CYP3A catalytic activity was evident / began: 50 nM
[8]; 0.25 μM, FIG. 5A
  exposure time until P-glycoprotein increased: about 72 hours
[9]
  CYP3A5 mRNA expression: appeared to increase in response to 1α,25-(OH)2 -D3, but to a much lesser degree
[10]; 0.25 μM two weeks, all five clones and parent
  CYP3A immunoreactive protein, clones and parent line: increased levels of CYP3A immunoreactive protein
[10]; 0.25 μM, FIG. 5A
  exposure time until increased CYP3A protein was evident: 18 h
[10]; 0.5 μM, untreated 7.9
  CYP3A content by densitometry: 20.6 pmol CYP3A/mg of total protein
[10]; M+, D+, 0.25 μM
  CYP3A expression in response to 1α,25-(OH)2 -D3 on Matrigel: clearly enhanced when the Caco-2 cells were grown on Matrigel
[10]
  CYP3A4 expression at the highest concentrations used: lower levels of expression
[10]; two weeks treatment, FIG. 2C
  concentration at which increase in CYP3A immunoreactive protein was evident / began: 50 nM
[11]
  level of CYP3A5 protein: little change
[12]
  level of LFABP protein: Neither of the FABPs showed changes in levels of expression
[13]
  CYP3A3 mRNA: not detected
[14]; 0.25 μM two weeks
  NADPH cytochrome P450 reductase expression among clones and parent line: variable responsiveness
[14]; 0.25 μM, FIG. 5A
  exposure time until NADPH cytochrome P450 reductase increased: 168 h
[14]
  concentrations at which NADPH cytochrome P450 reductase level increased: ≥ 50 nM
[15]
  CYP3A7 mRNA expression: appeared to increase in response to 1α,25-(OH)2 -D3, but to a much lesser degree
[16]
  villin expression at the highest concentrations used: lower levels of expression

## C=C1CC[C@H](O)C/C1=C/C=C1\CCC[C@]2(C)[C@@H]([C@H](C)CCCC(C)(C)O)CC[C@@H]12 [25-(OH)-D3, 25-hydroxyvitamin D3]
[4]
  level of CYP1A1 protein: did not appear to change
[17]
  level of IFABP protein: Neither of the FABPs showed changes in levels of expression
[5]
  level of CYP2D6 protein: did not appear to change
[7]; 15 μM, relative to maximum at 5 μM, FIG. 2B
  CYP3A catalytic activity at 15 μM: substantially declined
[7]; 20 μM, FIG. 2B
  CYP3A catalytic activity at 20 μM: declining still further
[7]; relative to 1α,25-(OH)2 -D3
  maximal CYP3A catalytic activity achieved: not as great as that achieved with 1α,25-(OH)2 -D3
[7]; [20]
  concentration at which increase in CYP3A catalytic activity was evident / began: 250 nM
[7]; two weeks treatment from confluence, FIG. 2A
  concentration at which CYP3A catalytic activity plateaued: > 1000 nM
[7]; two weeks treatment, FIG. 2B
  concentration of maximal CYP3A catalytic activity: 5000 nM
[8]; two weeks treatment
  concentrations at which immunoreactive P-glycoprotein increased: ≥ 2.5 µM
[18]
  level of cytochrome b5 immunoreactive protein: did not appear to change
[10]
  CYP3A4 expression at the highest concentrations used: lower levels of expression
[10]; two weeks treatment, FIG. 2C
  concentration at which CYP3A immunoreactive protein plateaued: > 1000 nM
  concentration at which increase in CYP3A immunoreactive protein was evident / began: 250 nM
[11]
  level of CYP3A5 protein: little change
[12]
  level of LFABP protein: Neither of the FABPs showed changes in levels of expression
[14]
  concentrations at which NADPH cytochrome P450 reductase level increased: ≥ 500 nM
[16]; concentrations ≥10 μM, two weeks, not shown
  level of villin immunoreactive protein: decrease slightly
[16]
  villin expression at the highest concentrations used: lower levels of expression

## C=C1CC[C@H](O)C/C1=C/C=C1\CCC[C@]2(C)[C@@H]([C@H](C)CCCC(C)C)CC[C@@H]12 [D3, cholecalciferol]
[19]; Giuliano et al.
  Caco-2 cell growth: decrease in cell growth
[19]; Halline et al.
  Caco-2 cell proliferation: dose-dependent inhibition of cell proliferation
[7]; up to 1.0 μM, two weeks
  effect on midazolam metabolism: no effect
[10]; up to 1.0 μM, two weeks
  effect on immunoreactive CYP3A protein: no effect

## CC(=O)OC/C=C(C)/C=C/C=C(C)/C=C/C1=C(C)CCCC1(C)C [Vitamin A, retinol acetate]
[6]
  enhancement of CYP3A4 mRNA expression: did not appear to enhance CYP3A4 mRNA expression

## NCC(=O)CCC(=O)O [delta-aminolevulinic acid]
[6]
  enhancement of CYP3A4 mRNA expression: did not appear to enhance CYP3A4 mRNA expression

## CCCC(=O)[O-].[Na+] [sodium butyrate]
[6]
  enhancement of CYP3A4 mRNA expression: did not appear to enhance CYP3A4 mRNA expression

## C=C1CC[C@H](O)C/C1=C/C=C1\CCC[C@]2(C)[C@@H]([C@H](C)/C=C/[C@H](C)C(C)C)CC[C@@H]12 [vitamin D2, ergocalciferol]
[6]
  enhancement of CYP3A4 mRNA expression: did not appear to enhance CYP3A4 mRNA expression

## CC1(S(=O)(=O)O)CC(=O)c2ccccc2C1=O (stereo not shown) [vitamin K, menadione sodium bisulfite]
[6]
  enhancement of CYP3A4 mRNA expression: did not appear to enhance CYP3A4 mRNA expression
